The structures appear in SMILES notation.

The nature of data set [1]: Pharmacokinetics after oral and iv dosing to rats. It is filed as in vivo, Sprague-Dawley rat. To be noted: rat. How it is done: Appendix 2. Pharmaco kinetics an d P l a s ma Protein Binding […]
Pharma cokinetics. In vivo PK characteristics were determined using non- fasted Sprague-Dawle y rats (mal e, 200-300 g, 10- 16 weeks of age) with groups of three animals per route per compound. Soluble formulations were developed and verified b y HP LC/UV s o that compounds were dosed discretel y b y the iv (1 mg/kg, 1 mL/kg) and po (5 mg/kg, 5 mL/kg) routes. Blood samples were obtained at various times after dosing and plasma prepared for LC -MS-MS quantification of the test substance after inclusion of an intern al standard . PK p aramet ers were calculated usin g a non -compartmental model in WinNonlin v5.2.
Plasma Protein Binding Assay. PPB was determined with a Rapid Equilibrium Dialysis device using 8 kDa molecular weight cut-off inserts (Fisher Scientific UK Ltd, Leicest ershire, UK) as described b y the manufacturer. R at (Sprague Dawl e y strain) plasma EDTA K2 (mixed gender, pooled, SeraLab, West Sussex, UK) was thawed and centrifuged at 13,000 x g for 10 min to remove precipitates before being spiked with compounds (5 µM). The concentrations of compounds in the plasma and buffer chambers were determined b y LC -MS-MS (AB Sciex 3200 QTrap) anal ysis after 4 h incubation at 37 °C. Binding was calculated from the concentration percentage in both chambers as shown below. Assays were p erfo rmed in replicate and the data

Data set [2] deals with T1, human recombinant caspase 3 (Homo sapiens, UniProt P42574).
T1 construct: host or cells: E. coli
T1 sequence (P42574 29-175 limits assumed): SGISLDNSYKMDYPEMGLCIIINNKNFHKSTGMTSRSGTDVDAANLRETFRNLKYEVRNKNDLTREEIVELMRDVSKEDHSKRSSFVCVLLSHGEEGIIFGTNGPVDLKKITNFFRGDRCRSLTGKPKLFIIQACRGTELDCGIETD
T1 sequence (P42574 176-277 limits assumed): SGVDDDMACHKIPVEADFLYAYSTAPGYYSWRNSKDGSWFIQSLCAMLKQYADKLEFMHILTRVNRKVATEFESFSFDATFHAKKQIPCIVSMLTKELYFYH
Description: Protease counter-screening: Caspase 3. In kind it is biochemical. How it is done: (§1) Appendix 7. Protease Counter -Screening
(§2) Protease counter-screeni ng was performed using the methods described below. Initial screening was conducted in duplicate using a single test substance concentration of 10 µ M .
(§3) Additional assays were conducted in replicate for selected pairin gs of test s ubstance and enz yme in order to enable the determination of IC50 values using conventional procedures.
(§4) Determination of K i was made using the Batch K i program (Biokin Ltd, Pullman, WA) to derive values from the Morrison equation: […]
(§5) Where [E ] is the active enz yme concentration, Kiapp is the apparent inhibition const ant, v 0 is the control velocit y in the absence of inhibitors, vb is the background velocity, v is the initial reaction velocit y in the presence of inhibitor, and I is the inhibitor concentration.Thence:
(§6) Where [S ] is the substrate concentration and KM is the Michealis constant. […]
(§7) by addition of 50 µM Ac-DEVD-AMC for another 60 min incubation period. The amount of AMC formed was determined fluorimetricall y (excitation 360 nm/emission 465 nm). […]
(§8) by addition of 25 µM Ac-LEH D-A FC for another 60 min incubation period. The amount of amino-4- trifluorometh ylcoumarin (AFC) formed determined fluorimetrically (400nm/ 510nm).
(§9) Cathepsin C: Cathepsin C from bovine spleen was used as the source of enz yme. […] T he amount of AMC product formed was read spectrofluorimetrically
A general note: The purpose of a counterscreen is to sort out artefacts and off-target activity.

Data set [3] has as its target T2, human recombinant caspase 9 (Homo sapiens, UniProt P55211).
T2 construct: host or cells: E. coli
As to the kind of experiment: Protease counter-screening: Caspase 9. In kind it is biochemical. As to the method: as §1, §2, §3, §4, §5, §6, §7, §8, §9

The subject of another data set is Human pancreatic trypsin. Description: Protease counter-screening: Trypsin. As to conditions: 10 µM. It is filed as biochemical. How it is done: as §1, §2, §3, §4, §5
Where [S ] is the substrate concentration and KM is the Michealis constant.
Caspase 1: Activity against human recombinant caspase 1 expressed in E. coli was tested using Ac-YVAD- AMC as the substrate. Test compound or vehicle was pre- incubated with 600 […]
followed by excitation/emission at 485/535 nm. […]
AMC formation was read at 360 nm/465 nm.
Cathepsin L2: Human recombinant cathepsin L2 expressed in NS0 cells was used as the enzyme source. […] Form ation of AMC was measured at 360 […]
The amount of AMC formed was read spectrofluorimetricall y at 360 nm/465 nm. […]

T2 sequence (P55211 1-315 limits assumed): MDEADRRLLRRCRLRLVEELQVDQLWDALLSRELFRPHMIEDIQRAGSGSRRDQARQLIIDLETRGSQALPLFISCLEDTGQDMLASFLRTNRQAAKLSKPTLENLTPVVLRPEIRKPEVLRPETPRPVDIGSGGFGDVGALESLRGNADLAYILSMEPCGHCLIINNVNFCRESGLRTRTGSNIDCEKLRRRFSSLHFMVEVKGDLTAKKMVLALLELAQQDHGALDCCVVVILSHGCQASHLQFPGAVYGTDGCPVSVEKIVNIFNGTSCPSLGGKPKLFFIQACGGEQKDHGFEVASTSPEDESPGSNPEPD
T2 sequence (P55211 331-416 limits assumed): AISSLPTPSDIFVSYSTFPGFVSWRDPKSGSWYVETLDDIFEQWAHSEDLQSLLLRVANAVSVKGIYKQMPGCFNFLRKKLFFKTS

For the compound `CC(C)[C@H](NC(=O)[C@H](C)NC(=O)[C@@H](NC(=O)c1ccccc1)C(C)(C)C)C(=O)C(=O)NCc1ccccc1` [Compound 38, N-{(S)-1-[(S)-1-((S)-1-Benzylaminooxalyl-2-methyl-propylcarbamoyl)-ethylcarbamoyl]-2,2-dimethyl-propyl}-benzamide], in data set [1] (male, Sprague-Dawley, plasma, 5 mg/kg po, mean ± SE, n = 3), the Cmax amounted to 732 ± 3 nM. Further, in data set [1] (male, Sprague-Dawley, plasma, po, 5 mg/kg, 5 mg/kg po compared with 1 mg/kg iv, nonfasted Sprague–Dawley rats, mean ± SE, n = 3, read-out: F % (bioavailability)), the bioavailability stood at 33 ± 8%. In addition, the “free conc Cmax” value in data set [1] (5 mg/kg po) is 29 ± 0 nM. The inhibition at 10 µM in data set [2] was found to be 1%; in data set [3] it was 0%. The Trypsin inhibition in the data set on Human pancreatic trypsin is 9%.

By Cmax is commonly meant the maximum level reached in the sampled fluid or tissue. As a reminder, the bioavailability is dose-corrected exposure relative to a reference, in per cent. In general, inhibition refers to the drop in the measured response relative to a control, in per cent.

The values are drawn from PMC4257840 (Journal of Medicinal Chemistry, 2014).
